Experimental data taken from patent US7709636B2, “Pyrazole sulfonylurea compound and herbicide” (Nissan Chemical Industries, Ltd., priority 2004, dated 2010).

Assays:
[1] = test system: Digitaria adscendes; test: Herbicidal effect test by foliage treatment; format: in vivo; settings: 1.6 g/a; foliage treatment after growth of 14 days; 3 weeks after treatment
Outline: (§1)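 Post-emergence foliar spray: plants raised 14 d in greenhouse (25–30° C) from seed in sterilized diluvial soil, sprayed with diluted wettable powder formulation, injury rated visually at 3 wk.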

[2] = test system: Amaranthus retroflexus; test: Herbicidal effect test by foliage treatment; format: in vivo; settings: 1.6 g/a; foliage treatment after growth of 14 days; 3 weeks after treatment
Outline: as §1

[3] = test system: Beta vulgaris (beet); test: Herbicidal effect test by foliage treatment; format: in vivo; settings: 1.6 g/a; foliage treatment after growth of 14 days; 3 weeks after treatment
Outline: as §1

[4] = test system: Chenopodium album; test: Herbicidal effect test by foliage treatment; format: in vivo; settings: 1.6 g/a; foliage treatment after growth of 14 days; 3 weeks after treatment
Outline: as §1

[5] = test system: Setaria viridis; test: Herbicidal effect test by foliage treatment; format: in vivo; settings: 1.6 g/a; foliage treatment after growth of 14 days; 3 weeks after treatment
Outline: as §1

[6] = test system: corn (Zea mays); test: Herbicidal effect test by foliage treatment; format: in vivo; settings: 1.6 g/a; foliage treatment after growth of 14 days; 3 weeks after treatment
Outline: as §1

[7] = test system: Stellaria media; test: Herbicidal effect test by foliage treatment; format: in vivo; settings: 1.6 g/a; foliage treatment after growth of 14 days; 3 weeks after treatment
Outline: as §1

[8] = test system: Black-grass; test: Herbicidal effect test by foliage treatment; format: in vivo; settings: 1.6 g/a; foliage treatment after growth of 14 days; 3 weeks after treatment
Outline: as §1

[9] = test system: Echinochloa crus-galli; test: Herbicidal effect test by foliage treatment; format: in vivo; settings: 1.6 g/a; foliage treatment after growth of 14 days; 3 weeks after treatment
Outline: as §1

[10] = test system: Avena fatua; test: Herbicidal effect test by foliage treatment; format: in vivo; settings: 1.6 g/a; foliage treatment after growth of 14 days; 3 weeks after treatment
Outline: as §1

[11] = test system: Triticum aestivum (wheat); test: Herbicidal effect test by foliage treatment; format: in vivo; settings: 1.6 g/a; foliage treatment after growth of 14 days; 3 weeks after treatment
Outline: as §1

[12] = test system: Ambrosia elatior; test: Herbicidal effect test by foliage treatment; format: in vivo; settings: 1.6 g/a; foliage treatment after growth of 14 days; 3 weeks after treatment
Outline: as §1

[13] = test system: Polygonum blumei; test: Herbicidal effect test by foliage treatment; format: in vivo; settings: 1.6 g/a; foliage treatment after growth of 14 days; 3 weeks after treatment
Outline: as §1

[14] = test system: soybean (Glycine max); test: Herbicidal effect test by foliage treatment; format: in vivo; settings: 1.6 g/a; foliage treatment after growth of 14 days; 3 weeks after treatment
Outline: as §1

[15] = test system: Abutilon avicennae; test: Herbicidal effect test by foliage treatment; format: in vivo; settings: 1.6 g/a; foliage treatment after growth of 14 days; 3 weeks after treatment
Outline: as §1

[16] = test system: Digitaria adscendes; test: Herbicidal effect test by soil treatment; format: in vivo; settings: 1.6 g/a, 3 weeks after treatment
Outline: (§2)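 Pre-emergence soil application: wettable powder formulation, water-diluted to set dose, sprayed evenly over soil surface after sowing; seeds under ~1.5 cm sterilized diluvial soil. Effect rated at 3 wk by criteria scale.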

[17] = test system: Amaranthus retroflexus; test: Herbicidal effect test by soil treatment; format: in vivo; settings: 1.6 g/a, 3 weeks after treatment
Outline: as §2

[18] = test system: Beta vulgaris (beet); test: Herbicidal effect test by soil treatment; format: in vivo; settings: 1.6 g/a, 3 weeks after treatment
Outline: as §2

[19] = test system: Chenopodium album; test: Herbicidal effect test by soil treatment; format: in vivo; settings: 1.6 g/a, 3 weeks after treatment
Outline: as §2

[20] = test system: Setaria viridis; test: Herbicidal effect test by soil treatment; format: in vivo; settings: 1.6 g/a, 3 weeks after treatment
Outline: as §2

[21] = test system: corn (Zea mays); test: Herbicidal effect test by soil treatment; format: in vivo; settings: 1.6 g/a, 3 weeks after treatment
Outline: as §2

[22] = test system: Stellaria media; test: Herbicidal effect test by soil treatment; format: in vivo; settings: 1.6 g/a, 3 weeks after treatment
Outline: as §2

[23] = test system: Black-grass; test: Herbicidal effect test by soil treatment; format: in vivo; settings: 1.6 g/a, 3 weeks after treatment
Outline: as §2

[24] = test system: Echinochloa crus-galli; test: Herbicidal effect test by soil treatment; format: in vivo; settings: 1.6 g/a, 3 weeks after treatment
Outline: as §2

[25] = test system: Avena fatua; test: Herbicidal effect test by soil treatment; format: in vivo; settings: 1.6 g/a, 3 weeks after treatment
Outline: as §2

[26] = test system: Triticum aestivum (wheat); test: Herbicidal effect test by soil treatment; format: in vivo; settings: 1.6 g/a, 3 weeks after treatment
Outline: as §2

[27] = test system: Ambrosia elatior; test: Herbicidal effect test by soil treatment; format: in vivo; settings: 1.6 g/a, 3 weeks after treatment
Outline: as §2

[28] = test system: Polygonum blumei; test: Herbicidal effect test by soil treatment; format: in vivo; settings: 1.6 g/a, 3 weeks after treatment
Outline: as §2

[29] = test system: soybean (Glycine max); test: Herbicidal effect test by soil treatment; format: in vivo; settings: 1.6 g/a, 3 weeks after treatment
Outline: as §2

[30] = test system: Abutilon avicennae; test: Herbicidal effect test by soil treatment; format: in vivo; settings: 1.6 g/a, 3 weeks after treatment
Outline: as §2

[31] = test system: Monochoria vaginalis; test: Herbicidal effect test in submerged condition by treatment during weed-growth stage (1); format: in vivo; settings: 0.64 g/a, treated at 1st to 2nd leaf stage, 3 weeks after treatment
Outline: (§3)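 Paddy-soil pots flooded to 4 cm water depth were sown and grown in a greenhouse at 25 to 30° C until weeds reached 1st to 2nd leaf stage. A wettable powder diluted in water to a predetermined formulation amount was applied to the water surface. Herbicidal effect was scored 3 weeks after treatment against set criteria.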

[32] = test system: Echinochloa crus-galli; test: as above; format: in vivo; settings: 0.64 g/a, treated at 1st to 2nd leaf stage, 3 weeks after treatment
Outline: as §3

[33] = test system: Scirpus juncoides; test: as above; format: in vivo; settings: 0.64 g/a, treated at 1st to 2nd leaf stage, 3 weeks after treatment
Outline: as §3

[34] = test system: direct sown rice; test: Herbicidal effect test by soil treatment; format: in vivo, Oryza sativa; settings: 1.6 g/a, 3 weeks after treatment
Outline: as §2

[35] = test system: direct sown rice; test: Herbicidal effect test by foliage treatment; format: in vivo, Oryza sativa; settings: 1.6 g/a; foliage treatment after growth of 14 days; 3 weeks after treatment
Outline: as §1

## COc1cc(OC)nc(NC(=O)NS(=O)(=O)c2c(C3=NOCC(C)(CI)O3)c(Cl)nn2C)n1 (centres unmarked) [Compound 4, N-((4,6-dimethoxypyrimidin-2-yl)aminocarbonyl)-3-chloro-4-(5-iodomethyl-5-methyl-5H,6H-1,4,2-dioxadin-3-yl)-1-methylpyrazole-5-sulfonamide]
[1]
  herbicidal effect, D: Digitaria adscendes: 0 (Herbicidal rate 5% or less (little effect))
[2]
  herbicidal effect, J: Amaranthus retroflexus: 2 (Herbicidal rate 20% or more and less than 40%)
[3]
  herbicidal effect, f: Beta vulgaris (beet): 1 (Herbicidal rate 5% or more and less than 20%)
[4]
  herbicidal effect, K: Chenopodium album: 4 (Herbicidal rate 70% or more and less than 90%)
[5]
  herbicidal effect, E: Setaria viridis: 0 (Herbicidal rate 5% or less (little effect))
[6]
  herbicidal effect, b: corn (Zea mays): 0 (Herbicidal rate 5% or less (little effect))
[7]
  herbicidal effect, M: Stellaria media: 2 (Herbicidal rate 20% or more and less than 40%)
[8]
  herbicidal effect, G: Black-grass: 0 (Herbicidal rate 5% or less (little effect))
[9]
  herbicidal effect, A: Echinochloa crus-galli: 0 (Herbicidal rate 5% or less (little effect))
[10]
  herbicidal effect, F: Avena fatua: 0 (Herbicidal rate 5% or less (little effect))
[11]
  herbicidal effect, e: Triticum aestivum (wheat): 0 (Herbicidal rate 5% or less (little effect))
[12]
  herbicidal effect, I: Ambrosia elatior: 3 (Herbicidal rate 40% or more and less than 70%)
[13]
  herbicidal effect, L: Polygonum blumei: 3 (Herbicidal rate 40% or more and less than 70%)
[14]
  herbicidal effect, c: soybean (Glycine max): 3 (Herbicidal rate 40% or more and less than 70%)
[15]
  herbicidal effect, H: Abutilon avicennae: 4 (Herbicidal rate 70% or more and less than 90%)
[16]
  herbicidal effect, D: Digitaria adscendes: 0 (Herbicidal rate 5% or less (little effect))
[17]
  herbicidal effect, J: Amaranthus retroflexus: 0 (Herbicidal rate 5% or less (little effect))
[18]
  herbicidal effect, f: Beta vulgaris (beet): 0 (Herbicidal rate 5% or less (little effect))
[19]
  herbicidal effect, K: Chenopodium album: 1 (Herbicidal rate 5% or more and less than 20%)
[20]
  herbicidal effect, E: Setaria viridis: 0 (Herbicidal rate 5% or less (little effect))
[21]
  herbicidal effect, b: corn (Zea mays): 0 (Herbicidal rate 5% or less (little effect))
[22]
  herbicidal effect, M: Stellaria media: 1 (Herbicidal rate 5% or more and less than 20%)
[23]
  herbicidal effect, G: Black-grass: 0 (Herbicidal rate 5% or less (little effect))
[24]
  herbicidal effect, A: Echinochloa crus-galli: 0 (Herbicidal rate 5% or less (little effect))
[25]
  herbicidal effect, F: Avena fatua: 0 (Herbicidal rate 5% or less (little effect))
[26]
  herbicidal effect, e: Triticum aestivum (wheat): 0 (Herbicidal rate 5% or less (little effect))
[27]
  herbicidal effect, I: Ambrosia elatior: 2 (Herbicidal rate 20% or more and less than 40%)
[28]
  herbicidal effect, L: Polygonum blumei: 0 (Herbicidal rate 5% or less (little effect))
[29]
  herbicidal effect, c: soybean (Glycine max): 0 (Herbicidal rate 5% or less (little effect))
[30]
  herbicidal effect, H: Abutilon avicennae: 0 (Herbicidal rate 5% or less (little effect))
[31]
  herbicidal effect, C: Monochoria vaginalis: 3 (Herbicidal rate 40% or more and less than 70%)
[32]
  herbicidal effect, A: Echinochloa crus-galli: 0 (Herbicidal rate 5% or less (little effect))
[33]
  herbicidal effect, B: Scirpus juncoides: 3 (Herbicidal rate 40% or more and less than 70%)
[34]
  herbicidal effect, d: direct sown rice: 0 (Herbicidal rate 5% or less (little effect))
[35]
  herbicidal effect, d: direct sown rice: 0 (Herbicidal rate 5% or less (little effect))
